# Assay results as given in patent publication US10060933B2, “Methods for diagnosis and treatment of amyotrophic lateral sclerosis based on an increased level of interaction between TDP-43 polypeptide and NF-KB P65 polypeptide” (UNIVERSITE LAVAL, priority 2011, dated 2018).
# Entries after “also recorded” stand apart in the source; their conditions may differ.
# Key:
# GFAP promoter activity = assay: In vivo bioluminescence imaging of GFAP-luc in spinal cord; parameters: species or system mouse; details: for GFAP promoter activity / GFAP-luc expression (bioluminescence) in spinal cord: GFAP-luc/TDP-43^Wt mice, 3 mg/kg i.p. twice a week for 10 weeks from 30 weeks, 36 and 40 weeks, vs untreated, 3 mg/kg
# Procedure: (§1) To study the in vivo effect of NF-κB inhibition on disease progression, we injected TDP-43^wt; GFAP-luc double transgenic mice with 3 mg/kg body weight of WA twice a week for 10-weeks starting at 30-weeks. […] We used TDP-43^wt; GFAP-luc double transgenic mice because the reporter luciferase (luc) allowed the longitudinal and non-invasive biophotonic imaging with CCD camera of the GFAP promoter activity which is a target of activated NF-κB. To analyse the spatial and temporal dynamics of astrocytes activation/GFAP induction in TDP-43 mouse model, we performed series of live imaging experiments. […] The downregulation of GFAP promoter activity was further confirmed in these mice using GFAP immunofluorescence of spinal cord sections of TDP-43^Wt mice (both drug-treated and untreated) (FIG. 8F). […] Down-regulation of GFAP along with reduction in active p65 levels in withaferin treated mice prompted us to analyse behavioural changes in these mice. […] The withaferin treated mice also had 40% reduction in the number of partially denervated neuromuscular junction (NMJ) (FIGS. 8E&G).
# (§2) Age matched control non-transgenic animals (n=10) and in TDP-43^Wt (n=10) littermates were injected twice a week with 0.9% saline intra-peritoneally. All the behavioral and imaging experiments were conducted in a double blind manner as such the experimenter had no knowledge of the drug treatment or the genotype of animals.
# As previously described^31, 32, the images were gathered using IVIS® 200 Imaging System (CaliperLSXenogen, Alameda, Calif., USA). Twenty-five minutes prior to imaging session, the mice received intraperitoneal (i.p.) injection of the luciferase substrate D-luciferine (150 mg/kg—for mice between 20 and 25 g, […] of a solution of 20 mg/ml of D-luciferine dissolved in 0.9% saline was injected) (CaliperLS-Xenogen).
# GFAP-luc/TDP-43^Wt mice = assay: Accelerating rotarod in TDP-43^Wt transgenic mice; format: in vivo, mouse
# Procedure: as §1, §2
# Accelerating rotarod was performed on mice at 4 rpm speed with 0.25 rpm/sec acceleration as described elsewhere^30. Mice were subjected to three trials per session and every two weeks.
# p65 = target: T1, p65 (Mus musculus, UniProt Q04207); assay: p65 EMSA on spinal cord tissue nuclear lysates; format: in vivo; details: treated vs untreated GFAP-luc/TDP-43^Wt mice
# T1 construct: from tissue; host or cells: spinal cord of GFAP-luc/TDP-43^Wt transgenic mice (nuclear lysates)
# Procedure: as §1
# 48 hrs after transfection of CMV-p65 with pCMV-TDP43^WT or pCMV-TDP43^G348C and treatment with LPS, BV-2 cells were harvested and nuclear extracts prepared. […] Concentrations of nuclear proteins were determined on diluted samples using a Bradford assay (Biorad). […]
# Mac-2 positive cells = assay: Activated microglia (Mac-2, Cox-2) in spinal cord sections; format: in vivo, mouse
# Procedure: as §1
# 4% Paraformaldehyde (PFA) fixed spinal cord and brain sections of mice were sectioned and fixed on slides. For immunohistochemistry, tissues were treated with hydrogen-peroxide solution before permeabilisation. […]
# neuromuscular junctions = assay: Neuromuscular junction staining and count; format: in vivo, mouse
# Procedure: For monitoring the neuromuscular junctions, 25 mm thick muscle sections were incubated for 1 h in 0.1 M glycine in PBS for 2 h at RT and then stained with Alexa Fluor 594-conjugated α-bungarotoxin (1:2000, Molecular Probes/Invitrogen detection technologies, Carlsbad, Calif., USA) diluted in 3% BSA in PBS for 3 h at RT. After washing in PBS, the muscle sections were blocked in 3% BSA, 10% goat serum and 0.5% Triton X-100 in PBS overnight at 48° C. The next day, the sections were incubated with mouse antineurofilament antibody 160 K (1:2000, Temecula, Calif., USA) and mouse anti-synaptophysin (Dako, Mississauga, ON, Canada) in the same blocking solution overnight at 48° C. After washing for 5 h, muscle sections were incubated with goat anti-mouse Alexa Fluor 488-conjugated secondary antibody (Probes/Invitrogen detection technologies, Carlsbad, Calif., USA) diluted 1:500 in blocking buffer for 3 h at RT. Three hundred neuromuscular junctions were counted per animal sample, discriminating both innervated and denervated junctions as described above. […]
# [1] = Detection of Withaferin A in the CSF of mice using HPLC; format: in vivo, mouse
# Procedure: FIG. 15. Detection of Withaferin A in the CSF of mice using HPLC. […] For blank samples (B), 0.9% saline was injected in non-transgenic mice. 1.5 hrs after injection, CSF samples from the mice were obtained using […] into the cistern magna. 50 μl of the sample was mixed with 60% ACN 0.1% formic acid, centrifuged and the supernatant was injected into HPLC. […] 1000 ng/ml withaferin-a chemical served as a standard (C). Withaferin retention time was 1.6 mins.
# [2] = withaferin treated TDP-43 transgenic mice after cessation of treatment
# T1 sequence (Q04207 whole entry): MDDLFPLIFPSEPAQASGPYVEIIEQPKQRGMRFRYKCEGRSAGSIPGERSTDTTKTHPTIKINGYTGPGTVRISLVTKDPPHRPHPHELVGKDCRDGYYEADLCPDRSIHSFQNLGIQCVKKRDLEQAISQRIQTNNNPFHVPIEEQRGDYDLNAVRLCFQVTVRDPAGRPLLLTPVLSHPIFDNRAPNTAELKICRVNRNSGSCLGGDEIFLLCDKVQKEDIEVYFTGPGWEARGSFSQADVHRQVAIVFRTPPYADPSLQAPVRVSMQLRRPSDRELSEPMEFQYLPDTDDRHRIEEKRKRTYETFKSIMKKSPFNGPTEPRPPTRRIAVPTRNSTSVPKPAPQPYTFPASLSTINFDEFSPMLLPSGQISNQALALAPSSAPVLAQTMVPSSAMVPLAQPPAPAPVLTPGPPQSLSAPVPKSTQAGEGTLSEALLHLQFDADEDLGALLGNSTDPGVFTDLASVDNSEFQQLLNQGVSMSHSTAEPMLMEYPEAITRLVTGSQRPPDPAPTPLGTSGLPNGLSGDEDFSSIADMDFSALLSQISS
smiles,measurement,setting,value
CC1=C(CO)C(=O)O[C@@H]([C@@H](C)[C@H]2CC[C@H]3[C@@H]4C[C@H]5O[C@]56[C@@H](O)C=CC(=O)[C@]6(C)[C@H]4CC[C@]23C)C1 [Withaferin A],GFAP promoter activity / GFAP-luc expression (bioluminescence) in spinal cord,GFAP promoter activity,Significant reduction
same,GFAP promoter activity / GFAP-luc expression (bioluminescence) in spinal cord,GFAP promoter activity; listed as WA,progressive reduction in GFAP-luc expression
same,GFAP luciferase activity after cessation of the drug treatment,GFAP promoter activity; [2],increase in GFAP luciferase activity
same,rotarod performance,"GFAP-luc/TDP-43^Wt mice; GFAP-luc/TDP-43^Wt mice, 3 mg/kg i.p. twice a week for 10 weeks, vs untreated, 3 mg/kg",significantly better motor performance; also recorded: much better rotarod performance
same,ameliorated motor impairment compared to untreated mice,GFAP-luc/TDP-43^Wt mice; TDP-43^WT or TDP-43^G348C transgenic mice,at least 4%
same,rotarod performance after cessation of the drug treatment,GFAP-luc/TDP-43^Wt mice; [2],decrease in rotarod performance
same,nuclear active p65 (EMSA),p65,reduced amount of active p65; also recorded: much reduced nuclear active p65
same,Mac-2^+ cells in L5 spinal cord,"Mac-2 positive cells; TDP-43^Wt (Withaferin treated) mice, untreated 13000±500/mm^3",6000±300 /mm^3
same,activated microglia (Mac-2 and Cox-2 double immunofluorescence),"Mac-2 positive cells; TDP-43^Wt mice, treated vs untreated",marked reduction in activated microglia
same,reduction in the number of partially denervated neuromuscular junction (NMJ),neuromuscular junctions; withaferin treated TDP-43^Wt mice vs untreated,40%
same,number of partially denervated muscle (NMJ frequency),"neuromuscular junctions; withaferin treated TDP-43^Wt mice, age-matched untreated 15±5%",9±4%
same,Withaferin A in CSF (HPLC),"[1]; 3 mg/kg intra-peritoneally, CSF 1.5 hrs after injection, 8-months old non-transgenic and TDP-43^Wt mice",presence of Withaferin-A
same,passage of the blood-brain barrier,"[1]; mice, FIG. 15",passes the blood-brain barrier
